Measured values reported in the supplement of paper PMC10307832.

Key:
Experiment in all cases: relative viability (nuclei count vs DMSO), 5 days (fraction); higher = more cells survive
[1] = compound: C1CNCCC1C2=CC(=NN2)C3=CC=NC=C3 + CC1(C)CCC(c2ccc(Cl)cc2)=C(CN2CCN(c3ccc(C(=O)NS(=O)(=O)c4ccc(N[C@H](CCN5CCOCC5)CSc5ccccc5)c(S(=O)(=O)C(F)(F)F)c4)cc3)CC2)C1 [Navitoclax] (partner 0.5 µM)
Outline: (§1)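 Each reported value is a median over duplicate plates. It expresses relative viability: treated-well nuclei count divided by vehicle-well nuclei count. Lung cancer cell lines in 1536-well plates were dosed by pin tool a day after seeding, alone with one drug or with a fixed anchor-drug dose plus five library-drug doses (not always all listed) in √10 steps, and nuclei were counted after 5 days.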

[2] = compound: C[C@@H](N)c1ccc(C(=O)Nc2ccnc3[nH]ccc23)cc1 + CC(=O)c1c(C)c2cnc(Nc3ccc(N4CCNCC4)cn3)nc2n(C2CCCC2)c1=O [Palbociclib] (partner 0.5 µM)
Outline: as §1

[3] = compound: C[C@@H](N)c1ccc(C(=O)Nc2ccnc3[nH]ccc23)cc1 + CC1(C)CCC(c2ccc(Cl)cc2)=C(CN2CCN(c3ccc(C(=O)NS(=O)(=O)c4ccc(N[C@H](CCN5CCOCC5)CSc5ccccc5)c(S(=O)(=O)C(F)(F)F)c4)cc3)CC2)C1 [Navitoclax] (partner 0.5 µM)
Outline: as §1

Tanzisertib + Pemetrexed = compound: O[C@H]1CC[C@H](Nc2ncc3nc(Nc4c(F)cc(F)cc4F)n([C@H]4CCOC4)c3n2)CC1 [Tanzisertib] + Nc1nc2[nH]cc(CCc3ccc(C(=O)N[C@@H](CCC(=O)O)C(=O)O)cc3)c2c(=O)[nH]1 [Pemetrexed] (partner 0.2 µM)
Outline: as §1

Cell Line | relative viability ([1]; first compound 0.08 µM) | relative viability ([1]; first compound 0.8 µM) | relative viability ([1]; first compound 2.53 µM) | relative viability ([1]; first compound 8 µM) | relative viability ([2]; first compound 0.04 µM) | relative viability ([2]; first compound 0.1265 µM) | relative viability ([2]; first compound 0.4 µM) | relative viability ([2]; first compound 1.265 µM) | relative viability ([2]; first compound 4 µM) | relative viability ([3]; first compound 0.04 µM) | relative viability ([3]; first compound 0.1265 µM) | relative viability ([3]; first compound 0.4 µM) | relative viability ([3]; first compound 1.265 µM) | relative viability ([3]; first compound 4 µM) | relative viability (Tanzisertib + Pemetrexed; first compound 0.08 µM) | relative viability (Tanzisertib + Pemetrexed; first compound 0.253 µM) | relative viability (Tanzisertib + Pemetrexed; first compound 0.8 µM) | relative viability (Tanzisertib + Pemetrexed; first compound 2.53 µM) | relative viability (Tanzisertib + Pemetrexed; first compound 8 µM)
NCI-H838 | 1.13 | 1.11 | 1.25 | 1.14 | 0.183 | 0.221 | 0.229 | 0.192 | 0.183 | 1.08 | 1.1 | 0.84 | 0.714 | 0.524 | 0.234 | 0.255 | 0.254 | 0.233 | 0.25
LK-2 | 0.674 | 1.25 | 0.843 | 0.87 | 0.826 | 0.7 | 0.655 | 0.485 | 0.912 | 0.976 | 1.18 | 0.927 | 0.82 | 0.762 | 0.294 | 0.273 | 0.161 | 0.234 | 0.244
NCI-H1650 | 1.11 | 1.37 | 1.12 | 1.22 | 0.384 | 0.369 | 0.319 | 0.294 | 0.344 | 1.35 | 1.3 | 1.4 | 1.45 | 0.863 | 0.349 | 0.351 | 0.511 | 0.33 | 0.329
NCI-H322M | 1.22 | 1.19 | 1.24 | 1.18 | 0.534 | 0.584 | 0.526 | 0.515 | 0.524 | 1.2 | 1.21 | 1.36 | – | 1.55 | 0.644 | 0.657 | 0.566 | 0.621 | 0.548
NCI-H2228 | 0.82 | 1.31 | 0.647 | 0.951 | 0.808 | 0.806 | 0.909 | 0.352 | 0.839 | 0.897 | 1.08 | 1.03 | 0.985 | 0.963 | 0.371 | 0.288 | 0.378 | 0.355 | 0.348
NCI-H1395 | 1.15 | 0.976 | 1.23 | 1.13 | 0.583 | 0.639 | 0.597 | – | 0.577 | 1.04 | 1.32 | 1.11 | – | 0.876 | 0.868 | 0.88 | 0.971 | 0.939 | 0.788
NCI-H520 | 1.06 | 1.01 | 1.06 | 1.28 | 0.218 | 0.231 | 0.263 | 0.254 | 0.225 | 1.03 | 1.01 | 1.05 | 1.14 | 1.14 | 0.589 | 0.714 | 0.67 | 0.561 | 0.642
NCI-H441 | – | 0.915 | 0.836 | 0.704 | 0.233 | 0.265 | 0.25 | 0.237 | 0.263 | 0.571 | 0.546 | 0.477 | 0.624 | 0.571 | 0.27 | 0.241 | 0.286 | 0.24 | 0.27
